Results taken from patent US20230146395A1, “Substituted Pyrimidines and Uses Thereof” (Verge Analytics, Inc., priority 2020, published 2023).
Structures can show the parent of a compound that is named as a salt.

What was measured:
PI3Kα = target: T1, PI3Kα (Homo sapiens, UniProt P42336); test: Inhibition of PI3K isoforms: PI3Kα (microfluidic electrophoresis kinase assay, PIP2/PS substrate); format: biochemical; settings: p110α/p85α, ATP 90 μM; read-out: PI3Ka IC50
T1 construct: Full-length N-terminal; FLAG (N); host or cells: SF9 cells (baculovirus)
T1 sequence (P42336 whole entry, canonical isoform): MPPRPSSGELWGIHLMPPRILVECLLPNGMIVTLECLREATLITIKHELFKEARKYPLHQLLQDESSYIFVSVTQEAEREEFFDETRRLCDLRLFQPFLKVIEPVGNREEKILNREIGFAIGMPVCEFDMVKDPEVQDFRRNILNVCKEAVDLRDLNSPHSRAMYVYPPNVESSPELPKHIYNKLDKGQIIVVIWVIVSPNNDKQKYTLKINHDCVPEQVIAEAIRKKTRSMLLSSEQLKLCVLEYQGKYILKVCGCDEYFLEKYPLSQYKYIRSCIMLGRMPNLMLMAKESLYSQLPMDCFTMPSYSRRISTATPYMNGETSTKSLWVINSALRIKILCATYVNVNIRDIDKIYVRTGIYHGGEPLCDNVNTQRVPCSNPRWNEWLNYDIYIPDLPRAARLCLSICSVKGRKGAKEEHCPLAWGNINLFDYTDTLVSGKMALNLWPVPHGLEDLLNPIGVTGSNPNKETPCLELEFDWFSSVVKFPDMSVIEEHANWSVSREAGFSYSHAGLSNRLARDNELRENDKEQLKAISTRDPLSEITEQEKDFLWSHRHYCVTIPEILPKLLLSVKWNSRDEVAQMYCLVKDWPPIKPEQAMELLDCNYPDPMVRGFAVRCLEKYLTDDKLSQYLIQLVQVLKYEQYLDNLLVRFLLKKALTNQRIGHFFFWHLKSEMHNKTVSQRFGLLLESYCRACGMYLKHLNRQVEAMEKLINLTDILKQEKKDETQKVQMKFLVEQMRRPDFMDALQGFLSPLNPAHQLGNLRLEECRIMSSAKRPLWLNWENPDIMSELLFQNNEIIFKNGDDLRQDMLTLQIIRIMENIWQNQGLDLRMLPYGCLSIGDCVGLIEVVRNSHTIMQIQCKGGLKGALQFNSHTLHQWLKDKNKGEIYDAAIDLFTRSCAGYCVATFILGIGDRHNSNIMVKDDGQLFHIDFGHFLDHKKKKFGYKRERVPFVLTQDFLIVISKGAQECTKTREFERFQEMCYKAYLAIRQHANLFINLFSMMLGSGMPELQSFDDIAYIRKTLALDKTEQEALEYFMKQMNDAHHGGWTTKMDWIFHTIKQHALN
T1 sequence (P27986 whole entry partner, canonical isoform): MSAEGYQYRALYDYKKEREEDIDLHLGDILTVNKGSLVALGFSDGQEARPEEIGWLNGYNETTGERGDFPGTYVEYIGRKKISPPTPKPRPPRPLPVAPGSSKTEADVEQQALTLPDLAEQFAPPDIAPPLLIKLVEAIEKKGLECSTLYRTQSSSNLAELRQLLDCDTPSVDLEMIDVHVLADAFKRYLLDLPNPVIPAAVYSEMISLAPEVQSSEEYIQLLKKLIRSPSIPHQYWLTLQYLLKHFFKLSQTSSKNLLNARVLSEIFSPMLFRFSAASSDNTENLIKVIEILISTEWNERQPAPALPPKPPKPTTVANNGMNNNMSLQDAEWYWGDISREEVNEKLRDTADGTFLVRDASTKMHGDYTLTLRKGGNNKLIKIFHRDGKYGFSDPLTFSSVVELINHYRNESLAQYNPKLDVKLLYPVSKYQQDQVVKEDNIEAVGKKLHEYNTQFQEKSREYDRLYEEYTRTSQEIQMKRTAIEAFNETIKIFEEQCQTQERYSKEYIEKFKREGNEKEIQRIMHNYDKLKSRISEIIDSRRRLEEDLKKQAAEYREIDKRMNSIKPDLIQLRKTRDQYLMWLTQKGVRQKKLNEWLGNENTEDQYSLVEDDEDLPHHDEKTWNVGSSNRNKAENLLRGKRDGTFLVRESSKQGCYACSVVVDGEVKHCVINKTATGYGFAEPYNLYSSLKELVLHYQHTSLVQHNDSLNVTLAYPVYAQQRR
Experimental: The kinase substrate was prepared by mixing and sonicating fluorescently-labeled phosphatidylinositol 4,5-phosphate (PIP2) with phospho-L-serine (PS) at 1:20 ratio in 50 mM HEPES buffer pH7.5.
The kinase reactions were assembled in 384-well plates (Greiner) in a total volume of […] as follows. The kinase proteins were pre-diluted in an assay buffer comprising 50 mM HEPES, pH 7.5, 0.012% CHAPS, 1 mM DTT, 10 mM Na3VaO4, 10 mM 3-GP, 3 mM MgCl2, and 40 mM NaCl2, and dispensed into a 384-well plate (10 μL per well). Test compounds were serially pre-diluted in DMSO and added to the protein samples by acoustic dispensing (Labcyte Echo). The concentration of DMSO was equalized to 1% in all samples. All test compounds were tested at 12 concentrations. The control samples (0%-inhibition in the absence of inhibitor, DMSO only) and 100%-inhibition (in the absence of enzyme) were assembled in replicates of four and were used to calculate %-inhibition in the presence of test compounds. The reactions were initiated by addition of 10 μL of the PIP2/PS substrate supplemented with ATP. The final concentration of enzymes was 0.5 nM (PI3Kα), 1 nM (PI3Kβ), 10 nM (PI3Kγ), and 0.25 nM (PI3Kδ). The final concentration of ATP was 90 μM (PI3Kα), 60 μM (PI3Kβ), 100 μM (PI3Kγ), and 90 μM (PI3Kδ). The final concentration of PIP2/PS substrate was 1 μM (PIP2). The kinase reactions were allowed to proceed for 3 h at room temperature. Following incubation, the reactions were quenched by addition of 50 μL of termination buffer (100 mM HEPES, pH 7.5, 0.01% Triton X-100, 20 mM EDTA). Terminated plates were analyzed on a microfluidic electrophoresis instrument (Caliper LabChip® 3000, Caliper Life Sciences/Perkin Elmer). The change in the relative fluorescence intensity of the PI(4,5)P substrate and PI(3,4,5)P product peaks was measured. The activity in each test sample was determined as the product to sum ratio (PSR): P/(S+P), where P is the peak height of the product, and S is the peak height of the substrate. Percent inhibition (Pinh) was determined using the following equation:
Pinh=(PSR0% inh−PSRcompound)/(PSR0% inh−PSR100% inh)*100
in which PSRcompound is the product/sum ratio in the presence of compound, PSR0% inh is the product/sum ratio in the absence of compound, and the PSR100% inh is the product/sum ratio in the absence of the enzyme.

[1] = target: T2, Full length human recombinant PIKFYVE (Homo sapiens, UniProt Q9Y2I7); test: Inhibition of PIKfyve (microfluidic electrophoresis kinase assay, PI3P/PS substrate); format: biochemical; settings: 12 concentrations
T2 construct: Full length human recombinant PIKFYVE; purchased Carna Biosciences (Kobe, Japan); host or cells: baculovirus expression system
T2 sequence (Q9Y2I7 whole entry): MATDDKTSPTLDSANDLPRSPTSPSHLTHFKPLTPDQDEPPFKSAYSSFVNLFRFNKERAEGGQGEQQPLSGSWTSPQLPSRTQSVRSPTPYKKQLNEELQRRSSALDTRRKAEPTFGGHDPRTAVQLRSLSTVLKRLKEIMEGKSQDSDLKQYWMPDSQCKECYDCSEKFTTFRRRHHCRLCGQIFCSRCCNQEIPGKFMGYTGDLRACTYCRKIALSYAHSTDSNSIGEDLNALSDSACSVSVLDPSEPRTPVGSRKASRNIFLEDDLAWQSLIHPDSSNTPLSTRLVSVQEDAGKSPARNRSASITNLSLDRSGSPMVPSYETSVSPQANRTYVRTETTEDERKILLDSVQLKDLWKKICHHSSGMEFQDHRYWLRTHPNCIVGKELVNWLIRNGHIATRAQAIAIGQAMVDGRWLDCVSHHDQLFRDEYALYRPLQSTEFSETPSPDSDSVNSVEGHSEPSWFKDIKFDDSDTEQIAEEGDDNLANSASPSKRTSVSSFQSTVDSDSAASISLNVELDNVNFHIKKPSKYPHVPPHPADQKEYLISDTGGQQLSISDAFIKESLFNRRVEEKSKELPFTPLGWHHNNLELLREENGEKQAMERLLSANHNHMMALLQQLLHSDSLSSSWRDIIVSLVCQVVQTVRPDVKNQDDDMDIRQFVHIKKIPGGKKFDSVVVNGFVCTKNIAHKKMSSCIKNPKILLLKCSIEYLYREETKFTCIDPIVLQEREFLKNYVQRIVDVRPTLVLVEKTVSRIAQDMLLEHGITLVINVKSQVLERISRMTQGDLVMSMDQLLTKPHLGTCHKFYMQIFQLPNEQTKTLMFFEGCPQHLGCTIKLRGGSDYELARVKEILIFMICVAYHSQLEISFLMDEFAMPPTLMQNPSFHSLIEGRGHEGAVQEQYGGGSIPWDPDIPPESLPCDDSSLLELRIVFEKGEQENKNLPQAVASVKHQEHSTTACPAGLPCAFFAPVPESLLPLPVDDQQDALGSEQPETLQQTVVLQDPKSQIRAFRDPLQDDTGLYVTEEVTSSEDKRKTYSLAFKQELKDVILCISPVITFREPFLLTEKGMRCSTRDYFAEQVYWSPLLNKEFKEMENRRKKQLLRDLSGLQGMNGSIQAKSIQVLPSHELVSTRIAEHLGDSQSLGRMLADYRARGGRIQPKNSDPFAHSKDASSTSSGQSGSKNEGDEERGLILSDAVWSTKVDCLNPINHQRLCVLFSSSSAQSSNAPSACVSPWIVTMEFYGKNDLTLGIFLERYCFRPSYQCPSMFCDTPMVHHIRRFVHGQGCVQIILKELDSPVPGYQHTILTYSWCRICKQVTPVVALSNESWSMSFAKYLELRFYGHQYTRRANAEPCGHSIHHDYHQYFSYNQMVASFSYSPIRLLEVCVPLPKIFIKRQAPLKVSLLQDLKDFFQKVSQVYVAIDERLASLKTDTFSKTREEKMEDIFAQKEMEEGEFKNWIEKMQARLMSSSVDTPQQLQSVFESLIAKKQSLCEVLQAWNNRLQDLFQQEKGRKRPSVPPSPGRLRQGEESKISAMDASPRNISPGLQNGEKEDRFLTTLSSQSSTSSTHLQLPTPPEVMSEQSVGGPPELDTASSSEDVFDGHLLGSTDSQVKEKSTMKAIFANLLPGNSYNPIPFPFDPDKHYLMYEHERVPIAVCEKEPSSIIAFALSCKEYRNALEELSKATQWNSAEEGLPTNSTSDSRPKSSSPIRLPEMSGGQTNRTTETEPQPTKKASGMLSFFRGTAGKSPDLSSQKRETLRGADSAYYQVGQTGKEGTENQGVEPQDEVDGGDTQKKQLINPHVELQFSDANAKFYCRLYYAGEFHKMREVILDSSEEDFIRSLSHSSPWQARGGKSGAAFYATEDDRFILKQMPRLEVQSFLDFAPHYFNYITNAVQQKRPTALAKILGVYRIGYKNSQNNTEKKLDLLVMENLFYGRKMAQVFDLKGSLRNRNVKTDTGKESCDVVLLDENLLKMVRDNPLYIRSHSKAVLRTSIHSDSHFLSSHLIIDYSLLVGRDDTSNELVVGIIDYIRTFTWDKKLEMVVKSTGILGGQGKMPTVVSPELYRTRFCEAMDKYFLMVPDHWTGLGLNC
Method in brief: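 Percent inhibition, from 12 concentrations, was derived from the product/(substrate+product) peak ratio separated by microfluidic electrophoresis, normalized to DMSO-only and enzyme-free controls. Reactions ran 3 h at room temperature: 2 nM N-terminal GST-PIKFYVE, 1 μM fluorescent PI3P in PS vesicles, […], HEPES pH 7.5, MgCl2/MnCl2.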

IC50 (PI3Kα): 6.78 µM
IC50 [1]: 0.0014 µM
Structure (SMILES): c1ccc(-c2cc(Nc3nc(N4CCOCC4)c4oc(-c5ccncc5)cc4n3)[nH]n2)cc1 [Compound 1, 4-morpholino-N-(3-phenyl-1H-pyrazol-5-yl)-6-(pyridin-4-yl)furo[3,2-d]pyrimidin-2-amine hydrochloride]
